The source of these data is patent US20160304970A1, “GENE BIOMARKER TO DIAGNOSE METASTIC LIVER CANCER AND METHODS FOR TARGETING THE SAME” (University of Southern California, priority 2015, published 2016).

The test system of one experiment is PTEN. Nature of the experiment: PTEN 3′-UTR luciferase reporter and western blot of PTEN-FOXO pathway. The experiment is classed as cell-based. The conditions noted are these: FIG. 47D.
Experiment [1] has as its system CD133 (+) Huh7 cells. Briefly: Tumor spheroid formation assay. It counts as cell-based, human. The conditions noted are these: CD133 (+) group; ATRA 5 μg/ml, SAHA 0.5 μg/ml; 2 weeks. As for the experimental part: Freshly sorted CD133(+)/(−) Huh7 cells were plated in a low binding culture plate (NUNC 145397) containing 100 cells per well in 100 μl of culture medium with ATRA (5 μg/ml), SAHA (0.5 μg/ml), or a combination of both. After 2 weeks, colony numbers were counted.

In experiment [2] the test system is Huh7, Hep3B, HepG2, human CSCs and mouse CSCs. Briefly: Combination dose determination, cell viability of HCC cells. The experiment is classed as cell-based. As for the experimental part:
Freshly sorted CD133 (+) Huh7 or mouse TICs were plated in 100 μl of medium containing 5000 cells per well in a 96-well plate. After 16 hours, 0.5 μl of a 2 μg/ml, 1 μg/ml, 0.2 μg/ml, 0.1 μg/ml, 0.02 μg/ml, or 0.01 μg/ml compound was added to each well in triplicate, resulting in a 10 μg/ml, 5 μg/ml, 1 μg/ml, 0.5 μg/ml, 0.1 μg/ml, and 0.05 μg/ml final concentration for most compounds, respectively. After 48 hours, the cells were either measured for cell viability by Cell-Glo® Reagent (Promega), or fixed with 1% PFA (paraformaldehyde) and stained with DAPI for high-throughput screening.

A further experiment deals with Nanog. Nature of the experiment: Nanog-GFP reporter cell screening. The experiment is classed as cell-based, mouse. The note with it: TICs with lentivirus Nanog-GFP reporter. As to the method: The Nanog-GFP liver cancer stem cell line was transduced with pGreenZeo-Nanog transcriptional reporter lentivirus vector (System Biosciences SR10031VA-1). The transduced cells were positively selected with zeomycin (10 μg/ml) and further sorted for the GFP-high population (˜20% of total population) for drug screening. Nanog-GFP liver cancer stem cells were then seeded in 100 μl medium containing 5000 cells per well in a 96-well plate. After 16 hours, 0.5 μl of a […] compound was added to each well, resulting in a 10 μg/ml final concentration for most compounds. After 12 hours, the cells were fixed with 1% Paraformadehyde and stained with DAPI; compounds were screened in duplicate. The GFP and DAPI images were acquired using a BD Pathway Bioimaging Systems instrument. Z-score was calculated from the data using the formula z=(X−u)/s.d., where u is the mean, s.d. is the standard deviation of the whole population and X is the sample value calculated based on the ratio of GFP intensity to DAPI intensity. The z-score of selected hits must be less than −1.0. The average of z-score of vehicle control is 2.0±1.04.

Experiment [3] concerns CD133 (+) Huh7 cells. Nature of the experiment: Anchorage-independent growth assay in soft agar. The conditions noted are these: retinoic acid 5 μg/ml, SAHA 0.5 μg/ml; 2 weeks. The experiment is classed as cell-based, human. As to the method: Freshly sorted CD133 (+)/(−) Huh7 cells were mixed with 0.35% agarose containing 1000 cells per well in culture medium with retinoic acid (5 μg/ml), SAHA (0.5 μg/ml), or a combination of both. After 2 weeks, the colony numbers were counted.

The next experiment relates to patient-derived TICs. Briefly: Subcutaneous xenograft of patient-derived TICs in NSG mice. The experiment is classed as in vivo, mouse. The conditions noted are these: no ATRA, i.p. As to the method: To establish prognostic biomarkers for the best combination chemotherapy, five different patient-derived TICs were tested for responses as xenografts in NSG mice for the best combination chemotherapy based on mutation/transcriptome subtypes. Anti-tumorigenic ability by ATRA+SAHA targeting TICs encapsulated with SAHA was validated (Table 3). […] As placebo treatment, solvent (DMSO) in an equal total volume (0.2 ml/mouse) was injected. Tumor growth kinetics was studied. Combination of ATRA with SAHA further inhibited the self-renewal abilities of TICs in vivo (FIG. 17E).

Experiment [4] concerns CD133 (+) Huh7 cells. Nature of the experiment: In vivo tumorigenicity, CD133 (+) Huh7 cells in NOG mice. Also on record: species or system mouse. As to the method: The TUNEL staining was performed according to the manufacturer's instructions (4810-30-K, TREVIGEN). In brief, paraffin-embedded tumor sections from each group were de-paraffinized, re-hydrated, and washed twice in PBS. Samples were covered with Proteinase K solution for 30 minutes at room temperature and then washed two times in deionized water. Slides were immersed in quenching solution for 5 minutes at room temperature and then washed in PBS. Slides were incubated in TdT labeling buffer for 5 minutes, immersed with labeling reaction mix, and incubated at 37° C. for 1 hour in a humidity chamber. Samples were immersed in TdT stop buffer for 5 minutes and then washed twice in deionized water for 5 minutes each at room temperature. Samples were covered with Strep-HRP solution and incubated for 10 minutes at 37° C. and washed twice in PBS. Samples were incubated in DAB solution for 5 minutes and then washed in deionized water several times. The samples were counterstained with Methyl Green and mounted on slides for observation.
CD133 was conjugated to the terminal amine functionality on a polyethylene glycol block of polylactide-polyethylene glycol (PLA-PEG) as previously described (Swaminathan et al., 2013). PLGA (30 mg) was dissolved in 1 ml chloroform containing ATRA (6 mg). An oil-in-water emulsion was formed by emulsifying the polymer drug solution in 6 ml of 2.5% w/v aqueous PVA solution by sonication (Sonicator®XL, Misonix, N.Y.) for 5 minutes in an ice bath. The PLA-PEG-CD133 conjugate was dissolved in chloroform (8 mg/100 μl) and added to the oil-in-water emulsion with stirring. The emulsion was stirred for 18 hours at ambient conditions followed by 2 hours under vacuum to remove residual chloroform. Nanoparticles were recovered by ultracentrifugation (35,000 rpm for 35 minutes at 4° C.; OptimaTMLE-80K, Beckman, Palo Alta, Calif.) and washed three times with deionized water to remove excess PVA and unencapsulated drugs. The nanoparticle suspension was then lyophilized (Labconco, FreeZone 4.5, Kansas City, Mo.). Before injection, the lyophilized nanoparticles were re-dissolved in PBS and filtered with a 0.22 micron filter.
A half million freshly sorted CD133 (+) TICs were suspended in 100 μl of Matrigel™ (BD) and injected subcutaneously into NOD/Shi-scid/IL-2Rγ^null(NOG) mice, six mice per group. After the tumor volume reached 100 mm^3, animals received one intravenous dose of CD133-conjugated RA nanoparticle (5 μg/ml) and SAHA (0.5 μg/ml) daily. The animals were monitored regularly for tumor growth and survival every day. All animals work was performed according to national and international guidelines. Animal studies were based on a protocol approved by the Institutional Animal Care and Use Committee at University of Southern California.

Consider `O=C(CCCCCCC(=O)Nc1ccccc1)NO` [SAHA, suberoylanilide hydroxamic acid], for which the “luciferase-PTEN 3′-UTR reporter activity” value in the experiment on PTEN is recorded as “increased”. Besides, the “reduction of colony numbers, tumor spheroid formation” value in the experiment with CD133 (+) Huh7 cells [1] is given as 66%. For the same compound, the “cell growth / viability in vitro” value in experiment [2] is “failed to reduce cell growth in vitro”. Moreover, the Nanog expression result in the experiment on Nanog is given as “suppressed Nanog expression”. Moreover, the “reduction of colony numbers, anchorage independent growth in soft agar” value in the experiment on CD133 (+) Huh7 cells [3] is given as 50%. The “anti-tumorigenic ability, % (animals/total)” value is on record as 10% (2/20) with patient-derived TICs (SAHA 8 mg/kg (human: 300 mg)), 5% (1/20) with patient-derived TICs (SAHA 10 mg/kg (human: 400 mg)) and 10% (2/20) with patient-derived TICs (SAHA 12 mg/kg (human: 500 mg)). Also, in the experiment with CD133 (+) Huh7 cells [4] (ATRA 5 μg/ml in CD133 antibody-conjugated nanoparticles, SAHA 0.5 μg/ml, after 4 days of treatment), the tumor growth entry was “did not reduce or even promote tumor growth”. The “tumor morphology, hematoxylin and eosin stained sections” value with CD133 (+) Huh7 cells [4] (NOG mice, CD133 (+) Huh7 tumors) was “did not induce cell death of tumor cells”.
